Measured values published in patent publication US6525056B2, “Heterocyclyl-substituted ring-fused pyridines and pyrimidines as corticotropin releasing hormone (CRH) antagonists, useful for treating cns and stress-related disorders” (Bristol-Myers Squibb Company, priority 1997, dated 2003).

## COCC[C@@H](COC)n1nnc2c(N3CCc4cc(Br)cc(Br)c43)nc(C)cc21 [Example 1, (S)-4-(5,7-Dibromo-2,3-dihydro-1H-indol-1-yl)-1-[1-(methoxymethyl)-3-methoxypropyl]-6-methyl-1H-1,2,3-triazolo[4,5-c]pyridine]
  melting point: 136 to 138 °C

## Cc1nc(N2CCc3cc(Cl)cc(Cl)c32)c2c(C)nn(Cc3ccccc3)c2n1 [Example 414]
  melting point: 145 to 146 °C
